Measured values: PubChem BioAssay (NCI)
Where “and” joins values, the source holds several entries; their conditions need not be identical. Equal values may be shown once.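 Briefly, cells in 96-well plates were exposed to five compound concentrations for 48 h, and endpoints were estimated by linear interpolation. GI50 is the concentration that inhibits growth by half. The concentration for full growth arrest is given as TGI.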

Experiments:
Experiment in all cases: inhibition of tumour cell growth, NCI panel, 48 h
HCC-2998 colon = system: HCC-2998 colon
HCT-116 colon = system: HCT-116 colon
HOP-92 NSCLC = system: HOP-92 NSCLC
IGROV1 ovarian = system: IGROV1 ovarian
K-562 leukemia = system: K-562 leukemia
M14 melanoma = system: M14 melanoma
NCI-H226 lung = system: NCI-H226 lung
NCI-H23 lung = system: NCI-H23 lung
SK-OV-3 ovarian = system: SK-OV-3 ovarian
HS 578T breast = system: HS 578T breast

## O=[P+](O)c1ccccn1
HCC-2998 colon
  TGI: > 100 µM
HCT-116 colon
  TGI: > 100 µM
HOP-92 NSCLC
  TGI: > 100 µM
IGROV1 ovarian
  TGI: > 100 µM
K-562 leukemia
  TGI: > 100 µM
M14 melanoma
  TGI: > 100 µM
NCI-H226 lung
  TGI: > 100 µM
NCI-H23 lung
  TGI: > 100 µM
SK-OV-3 ovarian
  TGI: > 100 µM

## Cc1cc(-c2nnc(/C=C/c3ccc4c(c3)OCO4)o2)n[nH]1
HCC-2998 colon
  GI50: 10.7 µM
  TGI: > 50 µM
HCT-116 colon
  GI50: 11.9 µM
  TGI: > 50 µM
HS 578T breast
  GI50: 9.64 µM
  TGI: 47 µM
IGROV1 ovarian
  GI50: 9.57 µM
  TGI: > 50 µM
K-562 leukemia
  GI50: 1.83 µM
  TGI: > 50 µM
M14 melanoma
  GI50: 6.32 µM
  TGI: 21.1 µM
NCI-H226 lung
  GI50: > 50 µM
  TGI: > 50 µM
NCI-H23 lung
  GI50: 11.9 µM
  TGI: > 50 µM
SK-OV-3 ovarian
  GI50: 21.1 µM
  TGI: > 50 µM

## C[C@H]1C/C=C/[C@H]2[C@@H]3O[C@]3(C)[C@@H](C)[C@H]3[C@H](Cc4ccccc4)NC(=O)[C@]32OC(=O)O/C=C/[C@@](C)(O)C1=O
HCC-2998 colon
  GI50: 0.155 µM and 0.342 µM
HCT-116 colon
  GI50: 0.0578 µM and 0.0207 µM and 0.0301 µM
  TGI: 6.75 µM and 16.3 µM and 33.6 µM
HOP-92 NSCLC
  TGI: 0.0591 µM and 0.0877 µM
IGROV1 ovarian
  GI50: 0.0703 µM and 0.0723 µM and 0.025 µM
  TGI: > 33.5 µM and 125 µM and > 250 µM
K-562 leukemia
  GI50: 0.0125 µM and 0.025 µM
  TGI: 91.2 µM and 125 µM and > 250 µM
M14 melanoma
  TGI: 25.4 µM
NCI-H226 lung
  GI50: 0.025 µM
NCI-H23 lung
  GI50: 0.17 µM and 0.13 µM
SK-OV-3 ovarian
  GI50: 0.025 µM

## C1OC1CN1CCN(CC2CO2)CC1 (stereo not given)
HCC-2998 colon
  TGI: > 100 µM
HCT-116 colon
  TGI: > 100 µM
HOP-92 NSCLC
  TGI: > 100 µM
IGROV1 ovarian
  TGI: > 100 µM
K-562 leukemia
  TGI: > 100 µM
M14 melanoma
  TGI: > 100 µM
NCI-H226 lung
  TGI: > 100 µM
NCI-H23 lung
  TGI: > 81.2 µM
SK-OV-3 ovarian
  TGI: > 100 µM

## Nc1c(C(=O)Nc2ccccn2)sc2nc3c(cc12)C(O)CCC3 (stereo not given)
HCC-2998 colon
  GI50: 1.85 µM
  TGI: > 50 µM
HCT-116 colon
  GI50: 1.72 µM
  TGI: > 50 µM
HS 578T breast
  GI50: 2.07 µM
  TGI: > 50 µM
IGROV1 ovarian
  GI50: 3.27 µM
  TGI: > 50 µM
K-562 leukemia
  GI50: 0.319 µM
  TGI: > 50 µM
M14 melanoma
  GI50: 0.949 µM
  TGI: > 50 µM
NCI-H226 lung
  GI50: > 50 µM
  TGI: > 50 µM
NCI-H23 lung
  GI50: 3.05 µM
  TGI: > 50 µM

## CCOC(=O)C(=O)Nc1cc(Cl)c(Cl)cc1Cl
HCC-2998 colon
  TGI: > 100 µM
HCT-116 colon
  TGI: > 100 µM
HOP-92 NSCLC
  TGI: > 100 µM
IGROV1 ovarian
  TGI: > 100 µM
K-562 leukemia
  TGI: > 100 µM
M14 melanoma
  TGI: > 100 µM
NCI-H226 lung
  TGI: > 100 µM
NCI-H23 lung
  TGI: > 100 µM
SK-OV-3 ovarian
  TGI: > 100 µM

## CC(C)(C)OC(=O)NCCCCn1c2c(c3ccccc3c1=O)C(=O)c1ccccc1-2
HCT-116 colon
  GI50: 5.21 µM
  TGI: > 100 µM
HS 578T breast
  GI50: 20.9 µM
  TGI: 52.8 µM
IGROV1 ovarian
  GI50: 23 µM
  TGI: > 100 µM
K-562 leukemia
  GI50: 24.8 µM
  TGI: > 100 µM
M14 melanoma
  GI50: 36.4 µM
  TGI: > 100 µM
NCI-H226 lung
  GI50: 14.1 µM
  TGI: 51.2 µM
NCI-H23 lung
  GI50: 20.8 µM
  TGI: 43.4 µM
SK-OV-3 ovarian
  GI50: 50.2 µM
  TGI: > 100 µM

## CCOC(=O)C1C=C2O[C@@H]3OC4(CCCCC4)O[C@@H]3C2C2C(=O)CCC(=O)[C@@]12C(=O)OC (stereo not given in full)
HCC-2998 colon
  TGI: > 100 µM
HCT-116 colon
  TGI: > 100 µM
HOP-92 NSCLC
  TGI: > 100 µM
IGROV1 ovarian
  TGI: > 100 µM
K-562 leukemia
  TGI: > 100 µM
M14 melanoma
  TGI: > 100 µM
NCI-H226 lung
  TGI: > 100 µM
NCI-H23 lung
  TGI: > 100 µM
SK-OV-3 ovarian
  TGI: > 100 µM

## O=c1c2cc(Br)cc(Br)c2nc(CCCl)n1-c1ccc(O)c([N+](=O)[O-])c1
HCC-2998 colon
  TGI: 32.4 µM
HCT-116 colon
  TGI: 28.1 µM
HOP-92 NSCLC
  TGI: 52.2 µM
IGROV1 ovarian
  TGI: 40.4 µM
K-562 leukemia
  TGI: 61.9 µM
M14 melanoma
  TGI: 31.9 µM
NCI-H226 lung
  TGI: 37.1 µM
NCI-H23 lung
  TGI: 46.5 µM
SK-OV-3 ovarian
  TGI: 29.5 µM

## Cc1cccc(C)c1NC(=O)CCc1nnc2s/c(=C\c3ccc(N(C)C)cc3)c(=O)n12
HCC-2998 colon
  TGI: > 100 µM
HCT-116 colon
  TGI: > 100 µM
HOP-92 NSCLC
  TGI: > 100 µM
IGROV1 ovarian
  TGI: > 100 µM
K-562 leukemia
  TGI: > 100 µM
M14 melanoma
  TGI: > 100 µM
NCI-H226 lung
  TGI: > 100 µM
NCI-H23 lung
  TGI: > 100 µM
SK-OV-3 ovarian
  TGI: > 100 µM

## [N-]=[N+]=NCCCn1c2c(c3ccc([N+](=O)[O-])cc3c1=O)C(=O)c1cc3c(cc1-2)OCO3
HCT-116 colon
  GI50: < 0.01 µM
  TGI: 1.18 µM
HOP-92 NSCLC
  GI50: 2.56 µM
  TGI: > 33.5 µM
IGROV1 ovarian
  GI50: 0.165 µM
  TGI: 1.46 µM
K-562 leukemia
  TGI: > 100 µM
M14 melanoma
  GI50: < 0.01 µM
  TGI: < 0.01 µM
NCI-H226 lung
  GI50: < 0.01 µM
  TGI: 2.34 µM
NCI-H23 lung
  GI50: < 0.01 µM
  TGI: < 0.01 µM
SK-OV-3 ovarian
  GI50: 0.7 µM
  TGI: > 100 µM

## CCCCC(C)/C=C/C(=O)C1=C(O)/C(=C/C(=O)O)OC1=O (stereo not given)
HCT-116 colon
  TGI: > 100 µM
IGROV1 ovarian
  TGI: > 100 µM
K-562 leukemia
  TGI: > 100 µM
M14 melanoma
  TGI: > 100 µM
NCI-H226 lung
  TGI: > 100 µM
NCI-H23 lung
  TGI: > 100 µM
SK-OV-3 ovarian
  TGI: > 100 µM

## C[P+](C)(C)C
HCC-2998 colon
  TGI: > 100 µM
HCT-116 colon
  TGI: > 100 µM
HOP-92 NSCLC
  TGI: > 100 µM
IGROV1 ovarian
  TGI: > 100 µM
K-562 leukemia
  TGI: > 100 µM
M14 melanoma
  TGI: > 100 µM
NCI-H226 lung
  TGI: > 100 µM
NCI-H23 lung
  TGI: > 100 µM
SK-OV-3 ovarian
  TGI: > 100 µM

## CCN(CC)c1c(-c2ccccc2)n[nH]c1C(=O)OC
HOP-92 NSCLC
  GI50: 17.8 µM
  TGI: 51.1 µM
HS 578T breast
  GI50: 17 µM
  TGI: 49.4 µM
IGROV1 ovarian
  GI50: 50.8 µM
  TGI: > 100 µM
K-562 leukemia
  GI50: 31.2 µM
  TGI: > 100 µM
M14 melanoma
  GI50: 30.1 µM
  TGI: 86.9 µM
NCI-H226 lung
  GI50: 16.9 µM
  TGI: 38.5 µM
NCI-H23 lung
  GI50: 42.4 µM
  TGI: > 100 µM
SK-OV-3 ovarian
  GI50: 17.4 µM
  TGI: 50.5 µM

## Nc1ccc(-c2cc(C(=O)Nc3nccs3)[nH]c(=S)n2)cc1
HCT-116 colon
  TGI: > 100 µM
HOP-92 NSCLC
  TGI: > 100 µM
IGROV1 ovarian
  TGI: > 100 µM
K-562 leukemia
  TGI: > 100 µM
M14 melanoma
  TGI: > 100 µM
NCI-H226 lung
  TGI: > 100 µM
NCI-H23 lung
  TGI: > 100 µM
SK-OV-3 ovarian
  TGI: > 100 µM

## S=c1o[nH]c(-c2ccccc2)c1C=Nc1ccccc1
HCC-2998 colon
  TGI: > 100 µM
IGROV1 ovarian
  TGI: > 100 µM
K-562 leukemia
  TGI: > 100 µM
M14 melanoma
  TGI: > 100 µM
NCI-H23 lung
  TGI: > 100 µM
SK-OV-3 ovarian
  TGI: > 100 µM

## CC1(C)CCCC2(C)C3C(O)CC2(C)C(O)C31 (stereo not given)
HCC-2998 colon
  TGI: > 100 µM
HCT-116 colon
  TGI: > 100 µM
IGROV1 ovarian
  TGI: > 100 µM
K-562 leukemia
  TGI: > 100 µM
M14 melanoma
  TGI: > 100 µM
NCI-H226 lung
  TGI: > 100 µM
NCI-H23 lung
  TGI: > 100 µM
SK-OV-3 ovarian
  TGI: > 100 µM

## CCc1cccc(C(C)C)c1NC(=O)CCl
HCT-116 colon
  TGI: > 100 µM
HOP-92 NSCLC
  TGI: > 100 µM
IGROV1 ovarian
  TGI: > 100 µM
K-562 leukemia
  TGI: > 100 µM
M14 melanoma
  TGI: > 100 µM
NCI-H226 lung
  TGI: > 100 µM
NCI-H23 lung
  TGI: > 100 µM
SK-OV-3 ovarian
  TGI: > 100 µM

## Cc1ccccc1NC(=O)/C=N/O
HCC-2998 colon
  TGI: > 100 µM
HCT-116 colon
  TGI: > 100 µM
IGROV1 ovarian
  TGI: > 100 µM
K-562 leukemia
  TGI: > 100 µM
M14 melanoma
  TGI: > 100 µM
NCI-H226 lung
  TGI: > 100 µM
NCI-H23 lung
  TGI: > 100 µM
SK-OV-3 ovarian
  TGI: > 100 µM

## O=C1/C(=C/c2ccc3c(c2)OCCO3)CCC/C1=C\c1ccc2c(c1)OCCO2
HCC-2998 colon
  TGI: > 100 µM
HCT-116 colon
  TGI: 7.85 µM
HOP-92 NSCLC
  TGI: > 100 µM
IGROV1 ovarian
  TGI: > 100 µM
M14 melanoma
  TGI: 41.3 µM
SK-OV-3 ovarian
  TGI: > 100 µM

## Cc1cccc(C)c1NC(=O)CCC/C(CC(=O)c1ccc(F)cc1)=N\NC(=O)C(=O)NN
HCC-2998 colon
  TGI: > 100 µM
HCT-116 colon
  TGI: > 100 µM
IGROV1 ovarian
  TGI: > 100 µM
K-562 leukemia
  TGI: > 100 µM
M14 melanoma
  TGI: > 100 µM
NCI-H226 lung
  TGI: > 100 µM
NCI-H23 lung
  TGI: > 100 µM
SK-OV-3 ovarian
  TGI: > 100 µM
